# Experimental data reported in patent US20110071108A1, “Beta-Cyclodextrin Derivatives as Antibacterial Agents” (Pinnacle Pharmaceuticals, Inc., priority 2005, published 2011).
# How the values were obtained:
# Pseudomonas aeruginosa = assay: Bacterial panel testing, MIC by broth microdilution; type: cell-based; conditions: 20-24 hours growth
# Method in brief: (§1)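 MIC via two-fold broth microdilution of compound (diluted to 10 μg/ml in DMSO) in McFarland-standardized, diluted inoculum in Mueller-Hinton or Brain Heart infusion media. Plates sealed (E. faecium with air-pore tape), incubated 20-24 h; clear wells read. Rifampicin included as control.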
# Salmonella choleraesuis = assay: as above; type: cell-based; conditions: 20-24 hours growth
# Method in brief: as §1
# Enterococcus faecium = assay: as above; type: cell-based; conditions: 20-24 hours growth
# Method in brief: as §1
# Eschericia coli = assay: as above; type: cell-based; conditions: 20-24 hours growth
# Method in brief: as §1
# Lungs cancer cells A549 = assay: Mammalian cytotoxicity
# Staphylococcus aureus = assay: Bacterial panel testing, MIC by broth microdilution; type: cell-based; conditions: 20-24 hours growth
# Method in brief: as §1
# Bacillus atrophaeus = assay: as above; type: cell-based; conditions: 20-24 hours growth
# Method in brief: as §1
Structure (SMILES),MIC PA (Pseudomonas aeruginosa) [µg/mL],MIC SC (Salmonella choleraesuis) [µg/mL],MIC EF (Enterococcus faecium) [µg/mL],MIC EC (Eschericia coli) [µg/mL],Mammalian Cytotoxicity IC50 (Lungs cancer cells A549) [µg/mL],MIC SA (Staphylococcus aureus) [µg/mL],MIC BA (Bacillus atrophaeus) [µg/mL]
NCCCCCC(=O)NC[C@H]1O[C@@H]2O[C@H]3[C@H](O)[C@@H](O)[C@@H](O[C@H]4[C@H](O)[C@@H](O)[C@@H](O[C@H]5[C@H](O)[C@@H](O)[C@@H](O[C@H]6[C@H](O)[C@@H](O)[C@@H](O[C@H]7[C@H](O)[C@@H](O)[C@@H](O[C@H]8[C@H](O)[C@@H](O)[C@@H](O[C@H]1[C@H](O)[C@H]2O)O[C@@H]8CNC(=O)CCCCCN)O[C@@H]7CNC(=O)CCCCCN)O[C@@H]6CNC(=O)CCCCCN)O[C@@H]5CNC(=O)CCCCCN)O[C@@H]4CNC(=O)CCCCCN)O[C@@H]3CNC(=O)CCCCCN,>200,>200,>200,>200,780,,
O[C@@H]1[C@@H](O)[C@H]2O[C@H]3[C@H](O)[C@@H](O)[C@@H](O[C@H]4[C@H](O)[C@@H](O)[C@@H](O[C@H]5[C@H](O)[C@@H](O)[C@@H](O[C@H]6[C@H](O)[C@@H](O)[C@@H](O[C@H]7[C@H](O)[C@@H](O)[C@@H](O[C@H]8[C@H](O)[C@@H](O)[C@@H](O[C@@H]1[C@@H](CNCc1ccccc1)O2)O[C@@H]8CNCc1ccccc1)O[C@@H]7CNCc1ccccc1)O[C@@H]6CNCc1ccccc1)O[C@@H]5CNCc1ccccc1)O[C@@H]4CNCc1ccccc1)O[C@@H]3CNCc1ccccc1,>200,,,,840,,
OC1C2OC(CNC(=S)NCc3ccccc3)C(OC3OC(CNC(=S)NCc4ccccc4)C(OC4OC(CNC(=S)NCc5ccccc5)C(OC5OC(CNC(=S)NCc6ccccc6)C(OC6OC(CNC(=S)NCc7ccccc7)C(OC7OC(CNC(=S)NCc8ccccc8)C(OC8OC(CNC(=S)NCc9ccccc9)C(O2)C(O)C8O)C(O)C7O)C(O)C6O)C(O)C5O)C(O)C4O)C(O)C3O)C1O (centres unmarked),>200,>200,>200,>200,,>200,>200
O[C@@H]1[C@@H](O)[C@H]2O[C@H]3[C@H](O)[C@@H](O)[C@@H](O[C@H]4[C@H](O)[C@@H](O)[C@@H](O[C@H]5[C@H](O)[C@@H](O)[C@@H](O[C@H]6[C@H](O)[C@@H](O)[C@@H](O[C@H]7[C@H](O)[C@@H](O)[C@@H](O[C@H]8[C@H](O)[C@@H](O)[C@@H](O[C@@H]1[C@@H](CNCCc1ccccc1)O2)O[C@@H]8CNCCc1ccccc1)O[C@@H]7CNCCc1ccccc1)O[C@@H]6CNCCc1ccccc1)O[C@@H]5CNCCc1ccccc1)O[C@@H]4CNCCc1ccccc1)O[C@@H]3CNCCc1ccccc1,>200,,,,43,,
O[C@@H]1[C@@H](O)[C@H]2O[C@H]3[C@H](O)[C@@H](O)[C@@H](O[C@H]4[C@H](O)[C@@H](O)[C@@H](O[C@H]5[C@H](O)[C@@H](O)[C@@H](O[C@H]6[C@H](O)[C@@H](O)[C@@H](O[C@H]7[C@H](O)[C@@H](O)[C@@H](O[C@H]8[C@H](O)[C@@H](O)[C@@H](O[C@@H]1[C@@H](CNC1CCN(Cc9ccccc9)CC1)O2)O[C@@H]8CNC1CCN(Cc2ccccc2)CC1)O[C@@H]7CNC1CCN(Cc2ccccc2)CC1)O[C@@H]6CNC1CCN(Cc2ccccc2)CC1)O[C@@H]5CNC1CCN(Cc2ccccc2)CC1)O[C@@H]4CNC1CCN(Cc2ccccc2)CC1)O[C@@H]3CNC1CCN(Cc2ccccc2)CC1,>200,,,,127,,
CCCCCCNC[C@H]1O[C@@H]2O[C@H]3[C@H](O)[C@@H](O)[C@@H](O[C@H]4[C@H](O)[C@@H](O)[C@@H](O[C@H]5[C@H](O)[C@@H](O)[C@@H](O[C@H]6[C@H](O)[C@@H](O)[C@@H](O[C@H]7[C@H](O)[C@@H](O)[C@@H](O[C@H]8[C@H](O)[C@@H](O)[C@@H](O[C@H]1[C@H](O)[C@H]2O)O[C@@H]8CNCCCCCC)O[C@@H]7CNCCCCCC)O[C@@H]6CNCCCCCC)O[C@@H]5CNCCCCCC)O[C@@H]4CNCCCCCC)O[C@@H]3CNCCCCCC,>200,,,,129,,
CCCCCCCCNC[C@H]1O[C@@H]2O[C@H]3[C@H](O)[C@@H](O)[C@@H](O[C@H]4[C@H](O)[C@@H](O)[C@@H](O[C@H]5[C@H](O)[C@@H](O)[C@@H](O[C@H]6[C@H](O)[C@@H](O)[C@@H](O[C@H]7[C@H](O)[C@@H](O)[C@@H](O[C@H]8[C@H](O)[C@@H](O)[C@@H](O[C@H]1[C@H](O)[C@H]2O)O[C@@H]8CNCCCCCCCC)O[C@@H]7CNCCCCCCCC)O[C@@H]6CNCCCCCCCC)O[C@@H]5CNCCCCCCCC)O[C@@H]4CNCCCCCCCC)O[C@@H]3CNCCCCCCCC,>200,,,,123,,
O[C@@H]1[C@@H](O)[C@H]2O[C@H]3[C@H](O)[C@@H](O)[C@@H](O[C@H]4[C@H](O)[C@@H](O)[C@@H](O[C@H]5[C@H](O)[C@@H](O)[C@@H](O[C@H]6[C@H](O)[C@@H](O)[C@@H](O[C@H]7[C@H](O)[C@@H](O)[C@@H](O[C@H]8[C@H](O)[C@@H](O)[C@@H](O[C@@H]1[C@@H](CNc1ncccc1OCc1ccccc1)O2)O[C@@H]8CNc1ncccc1OCc1ccccc1)O[C@@H]7CNc1ncccc1OCc1ccccc1)O[C@@H]6CNc1ncccc1OCc1ccccc1)O[C@@H]5CNc1ncccc1OCc1ccccc1)O[C@@H]4CNc1ncccc1OCc1ccccc1)O[C@@H]3CNc1ncccc1OCc1ccccc1,>200,>200,,>200,398,,
OC1C2OC(CNc3nc4ccccc4s3)C(OC3OC(CNc4nc5ccccc5s4)C(OC4OC(CNc5nc6ccccc6s5)C(OC5OC(CNc6nc7ccccc7s6)C(OC6OC(CNc7nc8ccccc8s7)C(OC7OC(CNc8nc9ccccc9s8)C(OC8OC(CNc9nc%10ccccc%10s9)C(O2)C(O)C8O)C(O)C7O)C(O)C6O)C(O)C5O)C(O)C4O)C(O)C3O)C1O (centres unmarked),>200,>200,,>200,317,,
OC1C2OC(CNC3CCNCC3)C(OC3OC(CNC4CCNCC4)C(OC4OC(CNC5CCNCC5)C(OC5OC(CNC6CCNCC6)C(OC6OC(CNC7CCNCC7)C(OC7OC(CNC8CCNCC8)C(OC8OC(CNC9CCNCC9)C(O2)C(O)C8O)C(O)C7O)C(O)C6O)C(O)C5O)C(O)C4O)C(O)C3O)C1O (centres unmarked),>200,>200,,,378,,
Cc1ccc(CNCC2OC3OC4C(CNCc5ccc(C)cc5)OC(OC5C(CNCc6ccc(C)cc6)OC(OC6C(CNCc7ccc(C)cc7)OC(OC7C(CNCc8ccc(C)cc8)OC(OC8C(CNCc9ccc(C)cc9)OC(OC9C(CNCc%10ccc(C)cc%10)OC(OC2C(O)C3O)C(O)C9O)C(O)C8O)C(O)C7O)C(O)C6O)C(O)C5O)C(O)C4O)cc1 (centres unmarked),>200,>200,,,376,,
C[C@@H](NCC1OC2OC3C(CN[C@H](C)c4ccccc4)OC(OC4C(CN[C@H](C)c5ccccc5)OC(OC5C(CN[C@H](C)c6ccccc6)OC(OC6C(CN[C@H](C)c7ccccc7)OC(OC7C(CN[C@H](C)c8ccccc8)OC(OC8C(CN[C@H](C)c9ccccc9)OC(OC1C(O)C2O)C(O)C8O)C(O)C7O)C(O)C6O)C(O)C5O)C(O)C4O)C(O)C3O)c1ccccc1 (some centres unmarked),>200,,,,105,,
Cl.Cl.Cl.Cl.Cl.Cl.Cl.NCc1cccc(CSCC2OC3OC4C(CSCc5cccc(CN)c5)OC(OC5C(CSCc6cccc(CN)c6)OC(OC6C(CSCc7cccc(CN)c7)OC(OC7C(CSCc8cccc(CN)c8)OC(OC8C(CSCc9cccc(CN)c9)OC(OC9C(CSCc%10cccc(CN)c%10)OC(OC2C(O)C3O)C(O)C9O)C(O)C8O)C(O)C7O)C(O)C6O)C(O)C5O)C(O)C4O)c1 (centres unmarked),,>200,>200,,54.3,,
OC1C2OC(CNC3CCCCC3)C(OC3OC(CNC4CCCCC4)C(OC4OC(CNC5CCCCC5)C(OC5OC(CNC6CCCCC6)C(OC6OC(CNC7CCCCC7)C(OC7OC(CNC8CCCCC8)C(OC8OC(CNC9CCCCC9)C(O2)C(O)C8O)C(O)C7O)C(O)C6O)C(O)C5O)C(O)C4O)C(O)C3O)C1O (centres unmarked),>200,>200,,,373,,
COc1cccc(CNCC2OC3OC4C(CNCc5cccc(OC)c5)OC(OC5C(CNCc6cccc(OC)c6)OC(OC6C(CNCc7cccc(OC)c7)OC(OC7C(CNCc8cccc(OC)c8)OC(OC8C(CNCc9cccc(OC)c9)OC(OC9C(CNCc%10cccc(OC)c%10)OC(OC2C(O)C3O)C(O)C9O)C(O)C8O)C(O)C7O)C(O)C6O)C(O)C5O)C(O)C4O)c1 (centres unmarked),>200,,,,282,,
COc1ccccc1CNCC1OC2OC3C(CNCc4ccccc4OC)OC(OC4C(CNCc5ccccc5OC)OC(OC5C(CNCc6ccccc6OC)OC(OC6C(CNCc7ccccc7OC)OC(OC7C(CNCc8ccccc8OC)OC(OC8C(CNCc9ccccc9OC)OC(OC1C(O)C2O)C(O)C8O)C(O)C7O)C(O)C6O)C(O)C5O)C(O)C4O)C(O)C3O (centres unmarked),>200,,,,297,,
COc1ccc(CNCC2OC3OC4C(CNCc5ccc(OC)cc5)OC(OC5C(CNCc6ccc(OC)cc6)OC(OC6C(CNCc7ccc(OC)cc7)OC(OC7C(CNCc8ccc(OC)cc8)OC(OC8C(CNCc9ccc(OC)cc9)OC(OC9C(CNCc%10ccc(OC)cc%10)OC(OC2C(O)C3O)C(O)C9O)C(O)C8O)C(O)C7O)C(O)C6O)C(O)C5O)C(O)C4O)cc1 (centres unmarked),>200,>200,,,297,,
